Reference: the supplement of paper PMC10307832

Legend:
Test in all cases: relative viability (nuclei count vs DMSO), 5 days (fraction); higher = more cells survive
Vandetanib + Pemetrexed = compound: COc1cc2/c(=N/c3ccc(Br)cc3F)nc[nH]c2cc1OCC1CCN(C)CC1 [Vandetanib] + Nc1nc2[nH]cc(CCc3ccc(C(=O)N[C@@H](CCC(=O)O)C(=O)O)cc3)c2c(=O)[nH]1 [Pemetrexed] (partner 0.2 µM)
Procedure, shortened: (§1)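 A single step with final 0.05% Triton X-100, 1% formaldehyde and 1 ug/ml Hoechst fixed the cells and stained nuclei 5 days after treatment. Lung cancer cell lines in 1536-well plates had been treated by pin tool the day after seeding with one drug alone or a fixed anchor-drug dose plus five library-drug doses (not always all listed) in √10 steps, and nuclei were counted on 4× images. Relative viability is the ratio of nuclei in treated wells to nuclei in vehicle wells, taken as the median of duplicate plates.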

Vandetanib + Dasatinib = compound: COc1cc2/c(=N/c3ccc(Br)cc3F)nc[nH]c2cc1OCC1CCN(C)CC1 [Vandetanib] + Cc1nc(Nc2ncc(C(=O)Nc3c(C)cccc3Cl)s2)cc(N2CCN(CCO)CC2)n1 [Dasatinib] (partner 0.075 µM)
Procedure, shortened: as §1

Vandetanib + Linsitinib = compound: COc1cc2/c(=N/c3ccc(Br)cc3F)nc[nH]c2cc1OCC1CCN(C)CC1 [Vandetanib] + C[C@]1(O)C[C@@H](c2nc(-c3ccc4ccc(-c5ccccc5)nc4c3)c3c(N)nccn32)C1 [Linsitinib] (partner 1 µM)
Procedure, shortened: as §1

CUDC-101 + Dasatinib = compound: C#Cc1cccc(Nc2ncnc3cc(OC)c(OCCCCCCC(=O)NO)cc23)c1 [CUDC-101] + Cc1nc(Nc2ncc(C(=O)Nc3c(C)cccc3Cl)s2)cc(N2CCN(CCO)CC2)n1 [Dasatinib] (partner 0.075 µM)
Procedure, shortened: as §1

Cell Line | relative viability (Vandetanib + Pemetrexed; first compound 0.02 µM) | relative viability (Vandetanib + Pemetrexed; first compound 0.06325 µM) | relative viability (Vandetanib + Pemetrexed; first compound 0.2 µM) | relative viability (Vandetanib + Pemetrexed; first compound 0.6325 µM) | relative viability (Vandetanib + Pemetrexed; first compound 2 µM) | relative viability (Vandetanib + Dasatinib; first compound 0.02 µM) | relative viability (Vandetanib + Dasatinib; first compound 0.06325 µM) | relative viability (Vandetanib + Dasatinib; first compound 0.2 µM) | relative viability (Vandetanib + Dasatinib; first compound 0.6325 µM) | relative viability (Vandetanib + Dasatinib; first compound 2 µM) | relative viability (Vandetanib + Linsitinib; first compound 0.02 µM) | relative viability (Vandetanib + Linsitinib; first compound 0.06325 µM) | relative viability (Vandetanib + Linsitinib; first compound 0.2 µM) | relative viability (Vandetanib + Linsitinib; first compound 0.6325 µM) | relative viability (Vandetanib + Linsitinib; first compound 2 µM) | relative viability (CUDC-101 + Dasatinib; first compound 0.01 µM) | relative viability (CUDC-101 + Dasatinib; first compound 0.03162 µM) | relative viability (CUDC-101 + Dasatinib; first compound 0.1 µM) | relative viability (CUDC-101 + Dasatinib; first compound 0.3162 µM) | relative viability (CUDC-101 + Dasatinib; first compound 1 µM)
HOP-62 | 0.325 | 0.358 | 0.438 | 0.299 | 0.291 | 0.611 | 0.569 | 0.671 | 0.573 | 0.684 | 1.04 | 0.965 | 0.926 | 1.05 | 0.977 | 0.678 | 0.656 | 0.692 | 0.631 | 0.438
NCI-H1792 | 0.834 | 0.733 | 0.733 | 0.822 | 0.771 | 0.774 | 0.803 | 0.783 | 0.884 | 0.725 | 0.559 | 0.605 | 0.559 | 0.547 | 0.454 | 0.764 | 0.683 | 0.856 | 0.819 | 0.691
HCC-15 | 0.229 | 0.226 | 0.235 | 0.238 | 0.225 | 0.583 | 0.572 | 0.632 | 0.639 | 0.606 | 0.816 | 0.804 | 0.91 | 0.864 | 0.849 | 0.641 | 0.622 | 0.628 | 0.672 | 0.473
NCI-H1755 | 0.396 | 0.53 | 0.464 | 0.482 | 0.451 | 0.416 | 0.425 | 0.446 | 0.42 | 0.404 | 0.985 | 0.939 | 0.922 | 0.974 | 0.936 | 0.4 | 0.376 | 0.462 | 0.519 | 0.377
NCI-H23 | 0.605 | 0.655 | 0.634 | 0.631 | 0.666 | 0.882 | 0.806 | 0.821 | 0.797 | 0.728 | 0.685 | 0.531 | 0.519 | 0.57 | 0.425 | 0.777 | 0.795 | 0.826 | 0.856 | 0.733
BEN | 0.725 | 0.67 | 0.635 | 0.714 | 0.516 | 0.309 | 0.331 | 0.271 | 0.286 | 0.288 | 0.851 | 0.82 | 0.869 | 0.868 | 0.793 | 0.426 | 0.301 | 0.346 | 0.311 | 0.264
NCI-H1651 | 0.579 | 0.583 | 0.555 | 0.5 | 0.505 | 0.313 | 0.461 | 0.431 | 0.394 | 0.386 | 1 | 0.87 | 0.956 | 0.873 | 0.806 | 0.378 | 0.335 | 0.434 | 0.39 | 0.384
NCI-H2126 | 0.658 | 0.632 | 0.715 | 0.669 | 0.651 | 0.564 | 0.564 | 0.626 | 0.559 | 0.467 | 0.67 | 0.728 | 0.73 | 0.765 | 0.647 | 0.7 | 0.588 | 0.612 | 0.579 | 0.481
